Experimental data from publication PMC7504215, “Copper(II) Complexes with Mixed Heterocycle Ligands as Promising Antibacterial and Antitumor Species” (Molecules, 2020).
Read-outs that look alike come from different tables or passages of the source.

What was measured:
[1] = system: S. aureus 25923; test: MIC assay, liquid medium microdilution (planktonic growth); assay type: cell-based, Staphylococcus aureus; conditions: S. aureus 25923, 24 h at 37 °C
Protocol: (§1) The antibacterial assays were performed on Gram-negative (Escherichia coli ATCC 25922, E. coli 5, Pseudomonas aeruginosa ATCC 27853, P. aeruginosa ATCC 9027) and Gram-positive (Staphylococcus aureus ATCC 25923, S. aureus ATCC 6538, MRSA (Meticillin-resistant S. aureus) 388, ATCC, American Type Culture Collection) bacterial strains. Microbial suspensions (1.5 × 10^8 CFU/mL; colony forming units (CFU)) corresponding to 0.5 McFarland density obtained from 15 to 18-h bacterial cultures developed on solid media were used. The antimicrobial activity was tested on Mueller–Hinton agar medium.
The quantitative assay of the antimicrobial activity was performed by the liquid medium microdilution method, in 96-well multi-well plates, to establish the minimal inhibitory concentration (MIC). For this purpose, serial two-fold dilutions of the compounds ranging between 1.000 and 1.95 μg/mL were performed in a 200 μL volume of broth and each well was seeded with 50 μL microbial inoculums. Sterility control (wells containing only culture medium) and culture controls (wells containing culture medium seeded with the microbial inoculum) were used. The influence of the DMSO solvent was also quantified in a series of wells containing DMSO, diluted accordingly with the dilution scheme used for the complexes. The plates were incubated for 24 h at 37 °C, and MIC values were considered as the lowest concentration of the tested compound that inhibited the visible growth of the microbial overnight cultures.

[2] = system: E. coli 25922; test: MBEC assay, micro-titer method (biofilm); assay type: cell-based, Escherichia coli
Protocol: as §1
(§2) The assessment of the complexes’ influence on the microbial ability to colonize an inert substratum with the establishment of the minimal biofilm eradication concentration (MBEC) was performed by the micro-titer method, following previously described protocols. The absorbance at 490 nm was measured with an Apollo LB 911ELISA (Berthold Technologies GmbH & Co. KG, Waltham, MA, USA) reader. All experiments were performed in triplicates.

[3] = system: E. coli 5 ESBL; test: MBEC assay, micro-titer method (biofilm); assay type: cell-based, Escherichia coli
Protocol: as §1, §2

[4] = system: normal BJ cell (human fibroblast); test: MTT cell viability assay; assay type: cell-based
Protocol: The cytotoxicity of ligand and copper(II) complexes was tested on normal BJ cell as well as on B16 (melanoma) tumor cells, which were grown for 48 h in culture medium containing the tested complexes in 0–25 μg/mL concentration range.
Human fibroblast cells (BJ-ATCC CRL-2522, Manassas, VA, USA) were grown in minimal essential medium (MEM) supplemented with 2 mM L-Glutamine, 10% fetal calf serum (FCS), 100 units/mL of penicillin and 100 µg/mL of streptomycin at 37 °C in a humidified incubator under an atmosphere containing 5% CO2. Mouse melanoma cells (B16-ATCC CRL-6475, Manassas, VA, USA) were grown in DMEM (Dulbecco’s Modified Eagle Medium) supplemented with similar reagents as MEM. All cell cultivation media and reagents were purchased from Biochrom AG (Berlin, Germany) and Sigma-Aldrich (Darmstadt, Germany).
Cell viability was evaluated using 3-(4,5-dimethylthiazol-2-yl)-2,5-diphenyltetrazolium bromide (MTT) assay, as described previously. First, the cells were seeded in 96-well plates (20,000 cells/well) and cultured for 24 h in medium. After overnight incubation, the medium was changed and the investigated sample in concentration varying from […] was added for 24 h. The negative control was represented by cells cultivated in medium without the investigated compounds. Following incubation, the medium was changed and the MTT solution was added to each well to a final concentration of 1 mg/mL and incubated for additional 4 h, at 37 °C. Finally, the medium was collected and DMSO was used to dissolve the insoluble formazan product. The absorbance of the samples was recorded at 570 nm using a plate reader Mithras 940 (Berthold). The data were corrected for the background and the percentage of viable cells was obtained using the equation:Cell viability = [(A570 of treated cells)/(A570 of untreated cells)] × 100%
The half-maximal inhibitory concentration (IC50) was determined by fitting the data with a logistical sigmoidal equation using the software Origin 8.1 from Microcal Inc. (Los Angeles, CA, USA).

[5] = system: λ-DNA/EB adduct; test: Quenching of fluorescence of λ-DNA/ethidium bromide adduct; assay type: binding, bacteriophage lambda; conditions: λ-DNA pre-treated with EB, increments of complex, pH 8
Protocol: To determine whether compounds have the capacity to interact with DNA, 48,500 base-pairs of genomic DNA from bacteriophage lambda (λ-DNA, Promega. Madison USA) was used. A stock solution of 10 µM λ-DNA (base-pair concentration) was prepared in 10 mM Tris/HCl buffer containing 1 mM NaCl, pH 8.
The binding of compounds to λ-DNA was assayed by monitoring the quenching of fluorescence emitted by λ-DNA/ethidium bromide (EB) adduct (λexcit = 510, maximum emission at λem = 601). The λ-DNA solution was added to the EB solution, prepared in the same buffer, then increasing concentrations of compounds were added to EB-DNA [2, 48]. The fluorescence spectra were recorded in the range of 550–750 nm using a Thermo Fischer Scientific Varioskan Flash spectral scanning multimode reader (Vantaa, Finland). The spectra were recorded in suitable plates using 5 nm excitation and emission slits for all measurements.

[6] = system: plasmid pRSII325; test: Nuclease activity assay, gel electrophoresis; assay type: biochemical; conditions: for Nuclease activity in the presence of H2O2: 3 µM compound + 1 mM H2O2, 1 h at 37 °C; for Nuclease activity in the presence of ascorbate: 3 µM compound + 1 mM ascorbate; for Nuclease activity in the presence of ascorbate / Nuclease activity, compound alone: 1 h at 37 °C; for Nuclease activity, compound alone: 3 µM compound, no activating agent
Protocol: The nuclease activity of the compounds was determined using plasmid pRS325II DNA, which was a gift from Steven Haase (Addgene plasmid #35467, 6835 base pairs). The plasmid was amplified in Escherichia coli by transforming One Shot® TOP10 chemically competent E. coli from Invitrogen, Thermo Fisher Scientific (Vilnius, Lithuania). Plasmid was isolated from positive colonies using a PureLink™ HiPure Plasmid Miniprep Kit from Invitrogen, Thermo Fisher Scientific (Vilnius, Lithuania). Plasmid (200 ng/sample) was exposed to 3 µM compounds in the presence of 1 mM hydrogen peroxide (to exploit the Cu(II/III) redox couple) or 1 mM ascorbic acid (to exploit the Cu(I/II) redox couple). The DNA cleavage experiments for the complexes were done in a 9/1 (v/v) ratio of 50 mM Tris-HCl buffer, pH 8, and DMSO. The samples were incubated for 1 h at 37 °C before a bromophenol blue/xylene cyanol-based loading dye (Roth, Germany) was added to the samples. Partial cleavage of the plasmid to linear form was done with the restriction enzyme EcoRI (Promega, USA) by incubation for 5 min at 37 °C. The samples were loaded on a 1% (w/v) agarose gel containing 1 μg/mL EtBr in 1 × TAE (Tris–acetic acid–EDTA) buffer. Electrophoresis was performed at 100 V for 45 min in 1 × TAE buffer. The images of the fluorescent ethidium bromide-stained gels were captured using a gel documentation system (Doc-Print II, Vilber Lourmat, France). The cleavage experiments were done six times, with similar results. One representative gel is shown.

| Compound | MIC [1] [µM] | MBEC value [2] [mM] | MBEC value [3] [mM] | IC50 BJ Cells 24 h ([4]; BJ cells, 24 h, MTT) [µg/mL] | IC50 ([4]; BJ cells, 24 h, MTT, read-out: IC50 BJ Cells 24 h) [µM] | IC50 BJ Cells 48 h ([4]; BJ cells, 48 h, MTT) [µg/mL] | IC50 ([4]; BJ cells, 48 h, MTT, read-out: IC50 BJ Cells 48 h) [µM] | Fluorescence of λ-DNA/EB adduct on adding complex [5] | Nuclease activity in the presence of H2O2 [6] | Nuclease activity in the presence of ascorbate [6] | Nuclease activity, compound alone [6] | Viability of BJ cells ([4]; 48 h, highest tested concentration (0–25 μg/mL range)) [%] |
| --- | --- | --- | --- | --- | --- | --- | --- | --- | --- | --- | --- | --- |
| Cc1cc(-c2ccccc2)nc2ncnn12.[Cu+2].[O-][Cl+3]([O-])([O-])[O-].[O-][Cl+3]([O-])([O-])[O-].c1cnc2c(c1)ccc1cccnc12.c1cnc2c(c1)ccc1cccnc12 [(2), [Cu(phen)2(pmtp)](ClO4)2] | 10 | 0.02 | 0.05 | 5.98 | 7 | 3.30 | 4 | the fluorescence intensity decreased | led to DNA degradation | led to DNA degradation | caused plasmid relaxation to the NC form | – |
| Cc1cc(-c2ccccc2)nc2ncnn12.[Cu+2].[O-][Cl+3]([O-])([O-])[O-].[O-][Cl+3]([O-])([O-])[O-].c1ccc(-c2ccccn2)nc1.c1ccc(-c2ccccn2)nc1 [(1), [Cu(bpy)2(pmtp)](ClO4)2] | 400 | 0.40 | 0.40 | – | – | – | – | the fluorescence intensity decreased | led to DNA degradation | led to DNA degradation | caused plasmid relaxation to the NC form | 70 |
